Laboratory results from US20150136167A1, “METHOD OF TREATING HAIR” (priority 2012, published 2015).

What was measured:
[1] = Hair straightening on dry hair switches (volume of switch image), Experiments 1 and 4
Procedure: Dark brown European wavy#6 switches of length 25 cm and weight 2 gms, were dosed with 2 ml each of 5% citric acid solutions at various pH's. They were combed straight and left to dry for at least 20 minutes. They were subsequently rinsed for 30 seconds under the tap. They were then combed straight and left to dry overnight. When dry the switches were combed straight and pictures taken. […] (Here volume refers to the projection of the switch image on to the screen and is given in mm^2).

[2] = Hair straightening with application to wet hair, Experiment 3
[3] = Solubility of actives at the 5% level; assay type: physicochemical
[4] = 5% solution at pH 2, 2 ml dosed on dry switch, left at least 20 min, rinsed, combed, dried overnight
[5] = 5% solution at pH 2, dosed on dry switch
[6] = 5% solution at pH 3, dosed on dry switch
[7] = 5% solution at pH 4, dosed on dry switch
[8] = 5% solution at pH 5, dosed on dry switch
[9] = 5% solution at pH 6, dosed on dry switch

SMILES	Volume in mm^2 [1, 4]	% benefit over water [1, 5]	% benefit over water [1, 6]	Volume in mm^2 [1, 6]	other results
O=C(O)/C=C(\CC(=O)O)C(=O)O [trans Aconitic acid]	8456 mm^2	40.8%	17.3%	11812 mm^2	–
O=C(O)C(O)c1ccccc1 (stereo not drawn) [Mandelic acid, reference compound]	13545 mm^2	5.1%	–	–	–
O=C(O)CC(O)(CC(=O)O)C(=O)O [citric acid]	9481 mm^2	33.6%	32.9%	9574 mm^2	straightening benefit compared with the results with dry hair ([2]; 5% solution at pH 2 applied to wet hair): significantly reduced; straightening benefit compared with the results with dry hair ([2]; 5% solution at pH 3 applied to wet hair): significantly reduced; % benefit over water [1, 7]: 17.9%; Volume in mm^2 [1, 7]: 11717 mm^2; % benefit over water [1, 8]: 23.9%; Volume in mm^2 [1, 8]: 10871 mm^2; % benefit over water [1, 9]: 15.0%; Volume in mm^2 [1, 9]: 12136 mm^2
O=C(O)CC(O)C(=O)O (stereo not drawn) [Malic acid]	12426 mm^2	13.0%	–	–	–
O=C(O)CC(=O)O [Malonic acid]	11220 mm^2	21.4%	16.3%	11950 mm^2	–
O=C(O)C(=O)O [Oxalic acid]	13419 mm^2	6.0%	–	–	–
O=C(O)/C=C/C(=O)O [Fumaric acid]	–	–	–	–	solubility at the 5% level [3]: not soluble at the 5% level
